pIC50: −log10 of the molar value.
Biological target: T1, recombinant human MER (Homo sapiens, UniProt Q12866)
T1 construct: purchased Invitrogen
T1 sequence (Q12866 21-999): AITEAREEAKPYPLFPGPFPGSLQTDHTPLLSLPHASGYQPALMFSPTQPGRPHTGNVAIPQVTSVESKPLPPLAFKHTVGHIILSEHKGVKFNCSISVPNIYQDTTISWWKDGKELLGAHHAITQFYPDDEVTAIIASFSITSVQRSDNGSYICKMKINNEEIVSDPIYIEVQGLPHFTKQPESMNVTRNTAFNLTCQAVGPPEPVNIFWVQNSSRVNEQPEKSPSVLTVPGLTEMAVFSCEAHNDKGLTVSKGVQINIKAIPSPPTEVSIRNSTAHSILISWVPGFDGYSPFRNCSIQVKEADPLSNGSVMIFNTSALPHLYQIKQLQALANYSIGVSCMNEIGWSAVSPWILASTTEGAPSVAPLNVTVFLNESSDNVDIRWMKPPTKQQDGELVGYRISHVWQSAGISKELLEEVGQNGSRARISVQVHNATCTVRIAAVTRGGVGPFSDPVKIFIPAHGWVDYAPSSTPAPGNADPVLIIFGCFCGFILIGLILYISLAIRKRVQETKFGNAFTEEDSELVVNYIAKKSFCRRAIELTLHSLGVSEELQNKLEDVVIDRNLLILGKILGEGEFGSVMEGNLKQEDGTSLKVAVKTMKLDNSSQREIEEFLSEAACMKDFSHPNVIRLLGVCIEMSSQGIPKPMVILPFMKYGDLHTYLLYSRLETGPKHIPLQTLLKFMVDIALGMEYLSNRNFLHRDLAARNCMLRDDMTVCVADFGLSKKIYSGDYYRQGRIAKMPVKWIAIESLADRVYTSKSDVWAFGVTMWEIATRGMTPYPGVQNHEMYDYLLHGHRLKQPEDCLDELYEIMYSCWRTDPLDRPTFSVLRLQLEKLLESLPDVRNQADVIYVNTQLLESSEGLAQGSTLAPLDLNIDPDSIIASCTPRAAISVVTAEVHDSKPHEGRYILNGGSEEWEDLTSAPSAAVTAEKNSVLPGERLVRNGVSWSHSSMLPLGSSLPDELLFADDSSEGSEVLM
Assay: HTRF KinEASE-TK biochemical potency, MER
Conditions: 1 nM MER, 700 μM ATP
Procedure: Purified recombinant human AXL, TYRO3 and MER proteins were purchased from Invitrogen™. 10 nM AXL, 2 nM TYRO3 or MER were incubated with varying concentrations of compounds in 50 mM HEPES, pH 7.4, 10 mM MgCl2, 0.01% BSA, 1 mM DTT and 2% DMSO in a total volume of 20 μl in a 384-well microplate (Corning™ #3640) at RT for 1 h. The AXL, TYRO3 and MER enzymatic reaction was initiated by transferring 10 μl of enzyme and compound mixture into 10 μl of 1.6 μM TK Substrate-biotin (HTRF® KinEASE-TK kit, Cisbio) and 1400 μM ATP pre-incubated in 50 mM HEPES, pH 7.4, 10 mM MgCl2, 0.01% BSA, 1 mM DTT in a 384-well microplate (Corning™ #3640) at RT, giving the final reaction conditions: 5 nM AXL, 1 nM TYRO3 or MER, 800 nM TK Substrate-biotin and 700 μM ATP in 50 mM HEPES, pH 7.4, 10 mM MgCl2, 0.01% BSA, 1 mM DTT and 1% DMSO with varying concentrations of compounds. Following 2 h incubation at RT, the AXL, TYRO3 and MER enzymatic reaction was stopped by transfer of 10 μl of reaction into 10 μl of detection mix (400 nM Streptavidin-XL665, 200-fold dilution TK Antibody-Cryptate and detection buffer, HTRF® KinEASE-TK kit, Cisbio) in a white 384-well microplate (Perkin Elmer, OptiPlate 384). After 1 h incubation at RT, the plate was put into a plate reader (Evision) to read at 665/620 nm (acceptor/donor) for HTRF. The value of the DMSO blank (MIN inhibition=100% activity) was used as a negative control. The positive control was established by adding 5 μl of enzyme and DMSO mixture into 10 μl of detection mix followed by addition of 5 μl of TK Substrate-biotin and ATP mixture (MAX inhibition=0% activity). To calculate the percent activity, Equation 1 was used. Ratio665/620 is the value at a given compound concentration: […]

Row | Structure (SMILES) | pIC50
1 | O=C1NCCOc2cc(-c3n[nH]c4ncc(-c5ccc6c(n5)CCC(N5CCCC5)CC6)cc34)ccc21 (stereo not shown) [Example 63, 8-{5-[7-(Pyrrolidin-1-yl)-5H,6H,7H,8H,9H-cyclohepta[b]pyridin-2-yl]-1H-pyrazolo[3,4-b]pyridin-3-yl}-2,3,4,5-tetrahydro-1,4-benzoxazepin-5-one] | 6.00 to 7.00
2 | O=C1NCCOc2cc(-c3n[nH]c4ncc(-c5ccc6c(c5)CNCC6)cc34)ccc21 [Example 55, 8-(5-(1,2,3,4-Tetrahydroisoquinolin-7-yl)-1H-pyrazolo[3,4-b]pyridin-3-yl)-3,4-dihydrobenzo[f][1,4]oxazepin-5(2H)-one] | 6.00 to 7.00
3 | O=C1NCCOc2cc(-c3n[nH]c4ncc(-c5ccc6c(c5)CCC(N5CCC[C@H]5CO)CC6)cc34)ccc21 (stereo partly drawn) [Example 50, 8-(5-{7-[(2S)-2-(Hydroxymethyl)pyrrolidin-1-yl]-6,7,8,9-tetrahydro-5H-benzo[7]annulen-2-yl}-1H-pyrazolo[3,4-b]pyridin-3-yl)-2,3,4,5-tetrahydro-1,4-benzoxazepin-5-one] | > 7.00
4 | CC(C)(O)C(=O)N1CCc2ccc(-c3cnc4[nH]nc(-c5ccc6c(c5)OCCNC6=O)c4c3)cc2CC1 [Example 19, 8-(5-(3-(2-Hydroxy-2-methylpropanoyl)-2,3,4,5-tetrahydro-1H-benzo[d]azepin-7-yl)-1H-pyrazolo[3,4-b]pyridin-3-yl)-3,4-dihydrobenzo[f][1,4]oxazepin-5(2H)-one] | 6.00 to 7.00
5 | COCCN1CCc2cc(-c3cnc4[nH]nc(-c5ccc6c(c5)OCCNC6=O)c4c3)ccc2C1 [Example 13, 8-(5-(2-(2-Methoxyethyl)-1,2,3,4-tetrahydroisoquinolin-6-yl)-1H-pyrazolo[3,4-b]pyridin-3-yl)-3,4-dihydrobenzo[f][1,4]oxazepin-5(2H)-one] | 6.00 to 7.00
6 | Cc1cc2c(cc1-c1cnc3[nH]nc(-c4ccc5c(c4)OCCNC5=O)c3c1)CCC(N1CCC[C@H]1C)CC2 (stereo partly drawn) [Example 64, 8-(5-{3-Methyl-7-[(2R)-2-methylpyrrolidin-1-yl]-6,7,8,9-tetrahydro-5H-benzo[7]annulen-2-yl}-1H-pyrazolo[3,4-b]pyridin-3-yl)-2,3,4,5-tetrahydro-1,4-benzoxazepin-5-one] | > 7.00
7 | C[C@@H]1CCCN1C1CCc2ccc(-c3cnc4[nH]nc(-c5ccc6c(c5)OCC5(CCC5)NC6=O)c4c3)cc2CC1 (stereo partly drawn) [Example 37, 8-(5-{7-[(2R)-2-Methylpyrrolidin-1-yl]-6,7,8,9-tetrahydro-5H-benzo[7]annulen-2-yl}-1H-pyrazolo[3,4-b]pyridin-3-yl)-4,5-dihydro-2H-spiro[1,4-benzoxazepine-3,1′-cyclobutan]-5-one] | > 7.00
8 | CC(C)C(=O)N1CCc2ccc(-c3cnc4[nH]nc(-c5ccc6c(c5)OCCNC6=O)c4c3)cc2CC1 [Example 16, 8-{5-[3-(2-Methylpropanoyl)-2,3,4,5-tetrahydro-1H-3-benzazepin-7-yl]-1H-pyrazolo[3,4-b]pyridin-3-yl}-2,3,4,5-tetrahydro-1,4-benzoxazepin-5-one] | 6.00 to 7.00
9 | C[C@@H]1CCCN1C1CCc2ccc(-c3cnc4[nH]nc(-c5ccc6c(c5)OCCNC6=O)c4c3)cc2CC1 (stereo partly drawn) [Example 44, 8-(5-{7-[(2R)-2-Methylpyrrolidin-1-yl]-6,7,8,9-tetrahydro-5H-benzo[7]annulen-2-yl}-1H-pyrazolo[3,4-b]pyridin-3-yl)-2,3,4,5-tetrahydro-1,4-benzoxazepin-5-one] | > 7.00
10 | C[C@@H]1CCCN1C1CCc2ccc(-c3cnc4[nH]nc(-c5ccc6c(c5)S(=O)(=O)NC6(C)C)c4c3)cc2CC1 (stereo partly drawn) [Example 33, 3,3-Dimethyl-6-(5-{7-[(2R)-2-methylpyrrolidin-1-yl]-6,7,8,9-tetrahydro-5H-benzo[7]annulen-2-yl}-1H-pyrazolo[3,4-b]pyridin-3-yl)-2,3-dihydro-1λ^6,2-benzothiazole-1,1-dione] | > 7.00
11 | O=C1NCCOc2cc(-c3n[nH]c4ncc(-c5ccc6c(c5)CCC(N5CCCC5)CC6)cc34)ccc21 (racemic) [Example 1, 8-{5-[7-(Pyrrolidin-1-yl)-6,7,8,9-tetrahydro-5H-benzo[7]annulen-2-yl]-1H-pyrazolo[3,4-b]pyridin-3-yl}-2,3,4,5-tetrahydro-1,4-benzoxazepin-5-one] | > 7.00
12 | CC1(O)CCc2cc(-c3n[nH]c4ncc(-c5ccc6c(c5)CC[C@@H](N5CCCC5)CC6)cc34)ccc21 (stereo partly drawn) [Example 30, 1-Methyl-5-{5-[(7S)-7-(pyrrolidin-1-yl)-6,7,8,9-tetrahydro-5H-benzo[7]annulen-2-yl]-1H-pyrazolo[3,4-b]pyridin-3-yl}-2,3-dihydro-1H-inden-1-ol] | 6.00 to 7.00
13 | COCCN1CCc2ccc(-c3cnc4[nH]nc(-c5ccc6c(c5)OCCNC6=O)c4c3)cc2CC1 [Example 15, 8-(5-(3-(2-Methoxyethyl)-2,3,4,5-tetrahydro-1H-benzo[d]azepin-7-yl)-1H-pyrazolo[3,4-b]pyridin-3-yl)-3,4-dihydrobenzo[f][1,4]oxazepin-5(2H)-one] | > 7.00
14 | C[C@@H]1CCCN1C1CCc2ccc(-c3cnc4[nH]nc(-c5ccc6c(c5)O[C@@H](C)CNC6=O)c4c3)cc2CC1 (stereo partly drawn) [Example 62, (2S)-2-Methyl-8-(5-{7-[(2R)-2-methylpyrrolidin-1-yl]-6,7,8,9-tetrahydro-5H-benzo[7]annulen-2-yl}-1H-pyrazolo[3,4-b]pyridin-3-yl)-2,3,4,5-tetrahydro-1,4-benzoxazepin-5-one] | > 7.00
15 | O=C1NCCOc2cc(-c3n[nH]c4ncc(-c5ccc6c(c5)CCC(N5CCC[C@@H]5CO)CC6)cc34)ccc21 (stereo partly drawn) [Example 49, 8-(5-{7-[(2R)-2-(Hydroxymethyl)pyrrolidin-1-yl]-6,7,8,9-tetrahydro-5H-benzo[7]annulen-2-yl}-1H-pyrazolo[3,4-b]pyridin-3-yl)-2,3,4,5-tetrahydro-1,4-benzoxazepin-5-one] | > 7.00
16 | C[C@H]1CCCN1C1CCc2ccc(-c3cnc4[nH]nc(-c5ccc6c(c5)OCCNC6=O)c4c3)cc2CC1 (stereo partly drawn) [Example 43, 8-(5-{7-[(2S)-2-Methylpyrrolidin-1-yl]-6,7,8,9-tetrahydro-5H-benzo[7]annulen-2-yl}-1H-pyrazolo[3,4-b]pyridin-3-yl)-2,3,4,5-tetrahydro-1,4-benzoxazepin-5-one] | > 7.00
17 | CC1(C)NS(=O)(=O)c2cc(-c3n[nH]c4ncc(-c5ccc6c(c5)CCC(N5CCCC5)CC6)cc34)ccc21 (stereo not shown) [Example 32, 3,3-Dimethyl-6-{5-[7-(pyrrolidin-1-yl)-6,7,8,9-tetrahydro-5H-benzo[7]annulen-2-yl]-1H-pyrazolo[3,4-b]pyridin-3-yl}-2,3-dihydro-1λ^6,2-benzothiazole-1,1-dione] | > 7.00
18 | C[C@H]1CCCN1C1Cc2ccc(-c3cnc4[nH]nc(-c5ccc6c(c5)OCC(C)(C)NC6=O)c4c3)cc2C1 (stereo partly drawn) [Example 39, 3,3-Dimethyl-8-(5-{2-[(2S)-2-methylpyrrolidin-1-yl]-2,3-dihydro-1H-inden-5-yl}-1H-pyrazolo[3,4-b]pyridin-3-yl)-2,3,4,5-tetrahydro-1,4-benzoxazepin-5-one] | 6.00 to 7.00
19 | Cc1c(-c2n[nH]c3ncc(-c4ccc5c(c4)CCC(N4CCC[C@H]4C)CC5)cc23)ccc2c1OCCNC2=O (stereo partly drawn) [Example 41, 9-Methyl-8-(5-{7-[(2R)-2-methylpyrrolidin-1-yl]-6,7,8,9-tetrahydro-5H-benzo[7]annulen-2-yl}-1H-pyrazolo[3,4-b]pyridin-3-yl)-2,3,4,5-tetrahydro-1,4-benzoxazepin-5-one] | 6.00 to 7.00

Reference: patent publication US20240226115A1, “AXL INHIBITOR COMPOUNDS” (ARCUS BIOSCIENCES, INC., priority 2021, published 2024)
